These results are taken from patent US5686459A, “Dioxopyrrolo pyrrole derivatives” (Hoffmann-La Roche Inc., priority 1995, dated 1997).

Holding throughout (type): biochemical
Experiment [1] addresses T1, thrombin (Homo sapiens, UniProt P00734). Kind of experiment: inhibition of the amidolytic activity of thrombin (chromogenic substrate H-D-Phe-Pip-Arg-paranitroaniline). The conditions noted are these: substrate 10 or 50 μM; thrombin 0.5 nM final conc.; pH 7.8; room temperature. The procedure:
The measurements were carried out on microtitre plates at room temperature. For this, in each well of the plate […] of buffer (50 mM Tris, 100 mM NaCl, 0.1% polyethylene glycol; pH 7.8) were mixed with […] of the inhibitor dissolved in DMSO and diluted in the buffer and […] of human thrombin (0.5 nM final conc.). After incubation for 10 minutes the reaction was started by the addition of the chromogenic substrate H-D-Phe-Pip-Arg-paranitroaniline (10 or 50 μM final concentration), in which Pip represents the characterizing group 2-piperidylenecarbonyl of the α-aminoacid H-Pip-OH, which is (S)-piperidine-2-carboxylic acid (or L-homoproline). The hydrolysis of the substrate was followed spectrophotometrically on a kinetic microtitre plate reader for 5 minutes.

Experiment [2] deals with Factor Xa (Homo sapiens, UniProt P00742). Kind of experiment: inhibition of the amidolytic activity of Factor Xa (chromogenic substrate Bz-Ile-Glu-Gly-Arg-paranitroaniline). The conditions noted are these: substrate 167 μM final concentration.
Experiment [3] has as its target T1, thrombin. Kind of experiment: thrombin test of crude products (chromogenic substrate S-2238, 405 nm). Particulars: crude product. The procedure: 5 g (1.5 mmol) of Fmoc-TGR resin according to H. Rink Tetrahedron Lett. 28, 3787 (1987) were shaken for 30 minutes. with a 20% solution of piperidine in DMF. Subsequently, the resin was washed with DMF. 1.19 g (3 mmol) of Fmoc-arginine, 950 mg (6 mmol) of 1-hydroxy-benzotriazole (HOBT--containing about 20% water), 570 mg of diisopropylcarbodiimide and DMF were added and the mixture was shaken for 1 hour. The resin was washed with DMF and shaken for 30 minutes with a 20% solution of piperidine in DMF. Thereafter, it was washed with DMF, isopropanol, water and methanol. Subsequently, the resin was distributed in equal portions in 30 reaction vessels, then 0.5 mmol of a carbonyl compound (a. paraformaldehyde, b. pivalaldehyde, c. benzaldehye, d. benzophenone and e. phenylpropionaldehyde) were added to in each case 6 of these vessels, whereafter to each 0.5 mmol of a maleimide (maleimide, N-methyl-, N-butyl-, N-cyclohexylmethyl-, N-phenyl- or N-benzyl-maleimide) was added such that each vessel contains a different pairing of carbonyl compound and maleimide. About 5 ml of a mixture of 150 ml of methanol and 8 ml of acetic acid were added to each vessel as the solvent and the batch was heated under reflux for 22 hours. After cooling the solvent was sucked off and the resin was washed in each case twice with dimethyl sulfoxide, isopropanol, water and isopropanol. The resin was then treated with in each case about 5 ml of a mixture of 40% trifluoroacetic acid, 50% dichloromethane, 5% water and 5% isopropanol and shaken for 2 hours. After filtration the 30 filtrate solutions were concentrated. 30 crude products were thus obtained as yellow oils. For mass spectroscopic and HPLC investigations about 0.5 mg of each oil was removed and taken up in […].

The Ki is the dissociation constant of the complex between target and ligand, obtained from inhibition or displacement. The low end stands for a stronger hold on the target, the high end for a looser hold on the target.

Structures are written as SMILES. Where a name gives a salt, the structure may show the parent alone.

Sequence of Factor Xa (P00742 235-488 limits assumed): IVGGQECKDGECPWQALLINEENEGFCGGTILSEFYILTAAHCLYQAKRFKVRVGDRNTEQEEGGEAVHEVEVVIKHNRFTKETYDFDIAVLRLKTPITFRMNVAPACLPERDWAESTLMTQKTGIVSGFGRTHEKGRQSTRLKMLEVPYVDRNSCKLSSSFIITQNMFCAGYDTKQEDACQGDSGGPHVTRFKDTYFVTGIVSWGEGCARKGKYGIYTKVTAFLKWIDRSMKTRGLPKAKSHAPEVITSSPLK
Sequence of Factor Xa (P00742 41-179 partner limits assumed): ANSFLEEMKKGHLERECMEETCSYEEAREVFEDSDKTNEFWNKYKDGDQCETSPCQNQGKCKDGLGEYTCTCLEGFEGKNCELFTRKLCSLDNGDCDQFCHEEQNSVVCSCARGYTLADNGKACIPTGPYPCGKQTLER

In turn, `N=C(N)c1ccc([C@@H]2[C@@H]3C(=O)N(Cc4ccc5c(c4)OCO5)C(=O)[C@@H]3[C@H]3CCCN32)cc1` (racemic) [4.A)g), (3aRS,4SR,8aRS,8bSR)-4-[2-(Benzo[1,3]dioxol-5-ylmethyl)-1,3-dioxo-decahydro-pyrrolo[3,4-a]pyrrolizin-4-yl]-benzimidamide hydrochloride] showed a Ki in experiment [1] of 90 nM. Take `N=C(N)c1ccc([C@@H]2N[C@](COCc3ccccc3)(C(=O)O)[C@@H]3C(=O)N(Cc4ccc(N)cc4)C(=O)[C@@H]32)cc1` (racemic) [Example 19, (1RS,3RS,3aSR,6aRS)-5-(4-amino-benzyl)-1-(benzyloxy-methyl)-3-(4-carbamimidoyl-phenyl)-4,6-dioxo-octahydro-pyrrolo[3,4-c]pyrrole-1-carboxylic acid hydrochloride]: the affinity in experiment [2], expressed as Ki, was 76 nM. As to `N=C(N)c1ccc([C@@H]2[C@@H]3C(=O)N(Cc4ccccc4)C(=O)[C@@H]3[C@H]3C[C@H](O)CN32)cc1` [7.A)o), (3aR,4S,7S,8aR,8bS)-4-(2-Benzyl-7-hydroxy-1,3-dioxo-decahydro-pyrrolo[3,4-a]pyrrolizin-4-yl)-benzimidamide hydrochloride], the inhibition constant Ki in experiment [1] is 670 nM. Turning to `N=C(N)c1ccc([C@@H]2[C@@H]3C(=O)N(CC4CCCCC4)C(=O)[C@@H]3[C@H]3CCCN32)cc1` (racemic) [7.A)g), (3aRS,4SR,8aRS,8bSR)-4-(2-Cyclohexylmethyl-1,3-dioxo-decahydro-pyrrolo[3,4-a]pyrrolizin-4-yl)-benzimidamide hydrochloride], in experiment [1], affinity was put at a Ki of 350 nM. Turning to `N=C(N)c1ccc(C2C3C(=O)N(c4ccccc4)C(=O)C3C(CO)(C(=O)O)N2CCC(N)=O)cc1` (stereo not drawn) [Example 14 p), 3-hydroxymethyl-5-phenyl-1-(4-carbamimidoyl-phenyl)-2-(2-carbamoyl-ethyl)-4,6-dioxo-octahydro-pyrrolo[3,4-c]pyrrole-3-carboxylic acid], the “inhibitory activity (determined according to Example 12)” value in experiment [3] (among the products of Example 14) is reported as “highest inhibitory activity”. With `N=C(N)c1ccc([C@@H]2N[C@](COCc3ccccc3)(C(=O)O)[C@@H]3C(=O)N(Cc4ccc([N+](=O)[O-])cc4)C(=O)[C@@H]32)cc1` (racemic) [Example 18, (1RS,3RS,3aSR,6aRS)-1-(benzyloxy-methyl)-3-(4-carbamimidoyl-phenyl)-5-(4-nitro-benzyl)-4,6-dioxo-octahydro-pyrrolo[3,4-c]pyrrole-1-carboxylic acid hydrochloride], the inhibition constant (Ki) in experiment [2] turned out to be 98 nM. In experiment [1], `N=C(N)c1ccc([C@H]2[C@H]3C(=O)N(Cc4ccc5c(c4)OCO5)C(=O)[C@H]3[C@@H]3CSCN32)cc1` (racemic) [Example 7.A)i), (5RS,5aSR,8aRS,8bRS)-4-[7-(Benzo[1,3]dioxol-5-ylmethyl)-6,8-dioxo-octahydro-pyrrolo[3',4':3,4]pyrrolo[1,2-c]thiazol-5-yl]-benzimidamide hydrochloride] returned a Ki of 440 nM. On to `N=C(N)c1ccc(C2C3C(=O)N(C(Cc4ccccc4)C(N)=O)C(=O)C3C3CCCN32)cc1` (stereo not drawn) [Example 15], for which the “inhibitory activity in the thrombin test” value in experiment [3] (among the 20 crude products of Example 15) is “highest inhibitory activity”. On to `C[C@H]1[C@@H]2C(=O)N(Cc3ccccc3)C(=O)[C@@H]2[C@H](c2ccc(C(=N)N)cc2)N1C` (racemic) [4.A)a), (1RS,3SR,3aRS,6aSR)-4-(5-Benzyl-2,3-dimethyl-4,6-dioxo-octahydro-pyrrolo[3,4-c]pyrrol-1-yl)-benzimidamide hydrochloride], for which the affinity in experiment [1] corresponds to a Ki of 670 nM. Regarding `CCCCN1C(=O)[C@@H]2[C@H](C1=O)[C@H]1CCCN1[C@@H]2c1ccc(NC(=N)N)cc1` (racemic) [Example 9, (3aRS,4SR,8aRS, 8bSR)-N-[4-(2-Butyl-1,3-dioxo-decahydro-pyrrolo[3,4-a]pyrrolizin-4-yl)-phenyl]-guanidinium nitrate], the Ki in experiment [1] is 110 nM. `N=C(N)NCCCC1(C(N)=O)NC(c2ccccc2)C2C(=O)N(c3ccccc3)C(=O)C21` (stereo not drawn) [Example 12 m), 3,5-diphenyl-1-(3-guanidino-propyl)-4,6-dioxo-octahydro-pyrrolo[3,4-c]pyrrole-1-carboxamide]: the “inhibitory activity in the thrombin test” value in experiment [3] (among the named cycloadducts of Example 12) was “greatest inhibitory activity”. Take `CSCCC1(C(=O)O)NC(c2ccc(C(=N)N)cc2)C2C(=O)N(CC3CCCCC3)C(=O)C21` (stereo not drawn) [Example 13 n), 5-cyclohexylmethyl-1-(2-methylsulfanyl-ethyl)-3-(4-carbamimidoyl-phenyl)-4,6-dioxo-octahydro-pyrrolo[3,4-c]pyrrole-1-carboxylic acid]: the “inhibitory activity in the thrombin test” value in experiment [3] (among the named cycloadducts of Example 13) was “greatest inhibitory activity”.
